Reference: the NIST ThermoML archive (doi:10.1021/je060271a)
Values joined by “and” are separate entries in the source; they are usually repeats but may differ in a detail not shown here. Equal entries are not always repeated. Numbers after ± are expanded uncertainties.

Conditions: 323.16 K, Liquid, Vibrating tube method

Measured: mass density

CCCCCC(=O)OCC(COC(=O)CCCCC)(COC(=O)CCCCC)COC(=O)CCCCC [pentaerythritol tetrahexanoate]
988.7 ± 1.2 kg/m3: 24202 kPa | 24303 kPa | 24355 kPa | 24410 kPa
984 ± 1.2 kg/m3: 16673 kPa | 16730 kPa | 16755 kPa | 16784 kPa | 16815 kPa | 16841 kPa
988.1 ± 1.2 kg/m3: 23110 kPa | 23136 kPa | 23189 kPa | 23264 kPa | 23370 kPa
985.5 ± 1.2 kg/m3: 18987 kPa | 19017 kPa | 19405 kPa
988.9 ± 1.2 kg/m3: 24480 kPa | 24507 kPa
983.9 ± 1.2 kg/m3: 16562 kPa | 16620 kPa | 16644 kPa
988.3 ± 1.2 kg/m3: 23447 kPa | 23473 kPa | 23522 kPa | 23591 kPa | 23615 kPa | 23661 kPa | 23686 kPa | 23761 kPa | 23782 kPa
983.8 ± 1.2 kg/m3: 16482 kPa | 16510 kPa | 16538 kPa | 16590 kPa
988.4 ± 1.2 kg/m3: 23641 kPa | 23710 kPa | 23736 kPa | 23807 kPa | 23832 kPa | 23879 kPa | 23904 kPa | 23956 kPa
987.8 ± 1.2 kg/m3: 22688 kPa | 22713 kPa | 22812 kPa | 22838 kPa | 22858 kPa | 22884 kPa
987.5 ± 1.2 kg/m3: 22208 kPa
984.9 ± 1.2 kg/m3: 17882 kPa | 18058 kPa | 18145 kPa | 18174 kPa | 18231 kPa | 18260 kPa
986.5 ± 1.2 kg/m3: 20616 kPa | 20787 kPa | 20841 kPa | 20871 kPa | 20984 kPa
986 ± 1.2 kg/m3: 19746 kPa | 19776 kPa | 19830 kPa | 19861 kPa | 19952 kPa | 19978 kPa | 20009 kPa
986.3 ± 1.2 kg/m3: 20282 kPa | 20558 kPa | 20645 kPa
988.8 ± 1.2 kg/m3: 24281 kPa | 24329 kPa | 24382 kPa | 24458 kPa | 24562 kPa
988 ± 1.2 kg/m3: 22957 kPa | 23009 kPa | 23061 kPa | 23162 kPa | 23215 kPa | 23238 kPa | 23292 kPa
987.7 ± 1.2 kg/m3: 22616 kPa | 22641 kPa | 22739 kPa | 22760 kPa | 22786 kPa
986.2 ± 1.2 kg/m3: 20098 kPa | 20162 kPa | 20219 kPa | 20339 kPa | 20396 kPa
984.3 ± 1.2 kg/m3: 17159 kPa | 17192 kPa | 17248 kPa | 17334 kPa | 17427 kPa
984.5 ± 1.2 kg/m3: 17540 kPa | 17565 kPa | 17682 kPa
987.6 ± 1.2 kg/m3: 22541 kPa | 22566 kPa
984.4 ± 1.2 kg/m3: 17216 kPa | 17278 kPa | 17303 kPa | 17365 kPa | 17396 kPa | 17452 kPa | 17481 kPa | 17510 kPa
985.7 ± 1.2 kg/m3: 19434 kPa | 19458 kPa | 19516 kPa | 19574 kPa
984.7 ± 1.2 kg/m3: 17652 kPa | 17766 kPa | 17796 kPa | 17852 kPa
984.1 ± 1.2 kg/m3: 16702 kPa | 16870 kPa | 16900 kPa | 17011 kPa | 17072 kPa
984.6 ± 1.2 kg/m3: 17594 kPa | 17623 kPa | 17706 kPa | 17736 kPa | 17826 kPa
987 ± 1.2 kg/m3: 21289 kPa | 21418 kPa | 21445 kPa | 21494 kPa | 21626 kPa | 21654 kPa
983.7 ± 1.2 kg/m3 and 983.8 ± 1.2 kg/m3: 16341 kPa
986.1 ± 1.2 kg/m3: 19891 kPa | 20040 kPa | 20067 kPa | 20130 kPa | 20188 kPa | 20251 kPa | 20314 kPa
987.2 ± 1.2 kg/m3: 21755 kPa | 21780 kPa | 21806 kPa | 21832 kPa | 21854 kPa | 21902 kPa | 21928 kPa | 21980 kPa | 22005 kPa
987.1 ± 1.2 kg/m3: 21550 kPa | 21572 kPa | 21599 kPa | 21681 kPa | 21708 kPa | 21730 kPa
985.6 ± 1.2 kg/m3: 19100 kPa | 19129 kPa | 19486 kPa
983.7 ± 1.2 kg/m3: 16340 kPa | 16370 kPa | 16396 kPa | 16427 kPa | 16452 kPa
985.8 ± 1.2 kg/m3: 19380 kPa | 19545 kPa | 19718 kPa
983.6 ± 1.2 kg/m3: 16347 kPa
989 ± 1.2 kg/m3: 24535 kPa | 24589 kPa | 24612 kPa
988.5 ± 1.2 kg/m3: 23858 kPa | 23930 kPa | 24028 kPa | 24053 kPa | 24079 kPa | 24103 kPa
985.1 ± 1.2 kg/m3: 18452 kPa | 18481 kPa | 18510 kPa | 18565 kPa | 18679 kPa
986.8 ± 1.2 kg/m3: 21161 kPa | 21187 kPa | 21214 kPa | 21316 kPa | 21342 kPa
986.6 ± 1.2 kg/m3: 20811 kPa | 20955 kPa
984.2 ± 1.2 kg/m3: 16925 kPa | 16955 kPa | 16986 kPa | 17041 kPa | 17102 kPa | 17128 kPa
987.3 ± 1.2 kg/m3: 21880 kPa | 22031 kPa | 22131 kPa | 22154 kPa
987.4 ± 1.2 kg/m3: 21954 kPa | 22053 kPa | 22079 kPa | 22105 kPa | 22182 kPa | 22231 kPa
983.8 ± 1.2 kg/m3 and 983.7 ± 1.2 kg/m3: 16338 kPa | 16342 kPa
985.4 ± 1.2 kg/m3: 18876 kPa | 18900 kPa | 18928 kPa | 18958 kPa | 19042 kPa | 19071 kPa
986.7 ± 1.2 kg/m3: 20925 kPa | 21013 kPa | 21035 kPa | 21061 kPa | 21087 kPa | 21113 kPa | 21139 kPa
987.9 ± 1.2 kg/m3: 22591 kPa | 22910 kPa | 22936 kPa | 22983 kPa | 23035 kPa | 23083 kPa
985.2 ± 1.2 kg/m3: 18594 kPa | 18624 kPa | 18649 kPa | 18709 kPa | 18737 kPa | 18761 kPa | 18818 kPa | 18846 kPa
985.9 ± 1.2 kg/m3: 19599 kPa | 19628 kPa | 19658 kPa | 19688 kPa | 19801 kPa | 19922 kPa
988.2 ± 1.2 kg/m3: 23319 kPa | 23346 kPa | 23397 kPa | 23424 kPa | 23498 kPa | 23542 kPa | 23566 kPa
986.9 ± 1.2 kg/m3: 21236 kPa | 21262 kPa | 21368 kPa | 21391 kPa | 21467 kPa | 21522 kPa
984.8 ± 1.2 kg/m3: 17913 kPa | 17940 kPa | 17970 kPa | 18001 kPa | 18032 kPa | 18088 kPa | 18119 kPa | 18312 kPa
986.4 ± 1.2 kg/m3: 20449 kPa | 20477 kPa | 20506 kPa | 20535 kPa | 20587 kPa | 20674 kPa | 20698 kPa | 20727 kPa | 20756 kPa
985.3 ± 1.2 kg/m3: 18789 kPa
985 ± 1.2 kg/m3: 18203 kPa | 18284 kPa | 18341 kPa | 18370 kPa | 18394 kPa | 18423 kPa | 18540 kPa
988.6 ± 1.2 kg/m3: 23981 kPa | 24006 kPa | 24128 kPa | 24154 kPa | 24180 kPa | 24228 kPa | 24254 kPa | 24431 kPa
